System: primary acute myeloid leukaemia (AML) blasts
Assay: In vitro cytotoxicity assay (LD50) in primary acute myeloid leukaemia cells
Assay type: cell-based, human
Conditions: primary AML blasts, 48 h; concentration required to kill 50% of the tumour cells in culture
Procedure: ProTide compounds, as defined herein, and the comparator ProTide compound NUC-1031 were assayed for their cytotoxic effects on primary cultures of acute myeloid leukaemia (AML) blasts. LD50 values (the concentration required to kill 50% of the tumour cells in culture) were calculated in respect of the ProTide compounds of the invention, and the parent compounds from which they are derived. […] The LD50 values of the ProTide compounds as defined herein (and their parent compounds) were compared with the comparator ProTide NUC-1031 and its parent compound gemcitabine.
Bone marrow samples were collected in ethylenediaminetetraacetic acid (EDTA) from newly diagnosed, previously untreated, acute myeloid leukaemia (AML) patients. AML blasts were enriched by density gradient centrifugation using Histopaque (Sigma, Poole, UK) and were subsequently maintained in Roswell Park Memorial Institute medium (RPMI) supplemented with 10% foetal bovine serum (FBS). Cells were treated with ProTide compounds (either as encompassed by the present invention, or the comparator ProTide NUC-1031) or with the ProTides' parent compounds at a range of experimental concentrations, and incubated for 48 h. All cultures were maintained at 37° C. in a 5% CO2 humidified atmosphere.
Cells were harvested and labelled with CD34-fluorescein isothiocyanate (FITC) (BD Biosciences, Buckingham, UK) and then resuspended in 200 μl of binding buffer containing 4 μl of annexin V labelled with allophycocyanin (APC) (eBioscience Ltd, Hatfield, UK). Apoptosis was quantified in the CD34^+ AML cells using an Accuri C6 flow cytometer (Becton Dickinson, CA, USA). At least 10,000 events were acquired and data were subsequently analysed using FlowJo software (Tree Star Inc., Ashland, Oreg., USA). All LD50 values (concentration of drug required to kill 50% of cells) were derived from the dose-response curves.

Q: For `C[C@H](NP(=O)(OC[C@H]1O[C@@H](n2ccc(N)nc2=O)C(F)(F)[C@@H]1O)Oc1ccccc1)C(=O)OCc1ccccc1` (stereo partly drawn) [NUC-1031, 2′-deoxy-2′,2′-difluoro-D-cytidine-5′-O-[phenyl (benzoxy-L-alaninyl)] phosphate], which LD50 is on record?
A: NUC-1031 0.28 μM

Source: US11400107B2, “Cancer treatments” (NuCana plc, priority 2016, dated 2022)
